{
  "source": "patent US11535621B2",
  "about": "“Heterobicyclic amides as inhibitors of CD38” (Ribon Therapeutics, Inc., priority 2019, dated 2022)",
  "data": [
    {"molecular_target": "Human CD38 (Homo sapiens (Human), UniProt P28907)", "sequence (P28907 whole entry)": "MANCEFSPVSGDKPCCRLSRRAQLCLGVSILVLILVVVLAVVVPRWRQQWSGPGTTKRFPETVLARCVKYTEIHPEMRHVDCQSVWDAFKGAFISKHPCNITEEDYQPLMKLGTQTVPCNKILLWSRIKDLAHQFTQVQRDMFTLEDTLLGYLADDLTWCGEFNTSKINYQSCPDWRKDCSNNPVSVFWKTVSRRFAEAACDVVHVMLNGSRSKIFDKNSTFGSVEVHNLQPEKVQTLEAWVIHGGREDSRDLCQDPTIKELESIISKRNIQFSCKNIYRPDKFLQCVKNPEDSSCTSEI", "experiment": "CD38 enzyme assay", "assay_type": "biochemical", "details": "2 nM CD38, NAD+ substrate, absorbance at 405 nm", "method_in_brief": "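IC50 values come from fitting % inhibition against compound concentration with a 4-parameter logistic, or a 3-parameter fit with top/bottom fixed at 100/0 or Hill at 1. Inhibition is scaled between DMSO wells and positive-control wells treated with a quinolinone CD38 inhibitor.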", "units": {"IC50": "nM"}, "values": [
      {"smiles": "O=C(Nc1ccc(OCCN2CC3(COC3)C2)nc1)c1nc(-n2ccnc2)cc2cn[nH]c12", "note": "[Example 230, N-(6-(2-(2-oxa-6-azaspiro[3.3]heptan-6-yl)ethoxy)pyridin-3-yl)-5-(1H-imidazol-1-yl)-1H-pyrazolo[3,4-c]pyridine-7-carboxamide]", "IC50": "10 to 100"},
      {"smiles": "O=C(Nc1ccc(OCC(F)(F)F)nc1)c1nc(-n2ccnc2)cc2cn[nH]c12", "note": "[Example 231, 5-(1H-imidazol-1-yl)-N-(6-(2,2,2-trifluoroethoxy)pyridin-3-yl)-1H-pyrazolo[3,4-c]pyridine-7-carboxamide]", "IC50": "< 10"},
      {"smiles": "O=C(N[C@H]1CC[C@H](N2CCC(F)(F)C2)CC1)c1nc(-n2ccnc2)cc2cn[nH]c12", "note": "[Example 232, N-((1r,4r)-4-(3,3-difluoropyrrolidin-1-yl)cyclohexyl)-5-(1H-imidazol-1-yl)-1H-pyrazolo[3,4-c]pyridine-7-carboxamide]", "IC50": "10 to 100"},
      {"smiles": "O=C(N[C@H]1CC[C@H](NC2COC2)CC1)c1nc(-n2ccnc2)cc2cn[nH]c12", "note": "[Example 233, 5-(1H-imidazol-1-yl)-N-((1r,4r)-4-(oxetan-3-ylamino)cyclohexyl)-1H-pyrazolo[3,4-c]pyridine-7-carboxamide]", "IC50": "10 to 100"},
      {"smiles": "O=C(N[C@H]1CC[C@H](N2CC(C(F)(F)F)C2)CC1)c1nc(-n2ccnc2)cc2cn[nH]c12", "note": "[Example 234, 5-(1H-imidazol-1-yl)-N-((1r,4r)-4-(3-(trifluoromethyl)azetidin-1-yl)cyclohexyl)-1H-pyrazolo[3,4-c]pyridine-7-carboxamide]", "IC50": "10 to 100"},
      {"smiles": "CC(F)(F)CN[C@H]1CC[C@H](NC(=O)c2nc(-n3ccnc3)nc3cc[nH]c23)CC1", "note": "[Example 235, N-((1r,4r)-4-((2,2-difluoropropyl)amino)cyclohexyl)-2-(1H-imidazol-1-yl)-5H-pyrrolo[3,2-d]pyrimidine-4-carboxamide]", "IC50": "10 to 100"},
      {"smiles": "O=C(Nc1ccc2c(c1)CNC2)c1nc(-n2ccnc2)cc2cn[nH]c12", "note": "[Example 236, 5-(1H-imidazol-1-yl)-N-(isoindolin-5-yl)-1H-pyrazolo[3,4-c]pyridine-7-carboxamide]", "IC50": "< 10"},
      {"smiles": "CC(=O)N1Cc2ccc(NC(=O)c3nc(-n4ccnc4)cc4cn[nH]c34)cc2C1", "note": "[Example 237, N-(2-acetylisoindolin-5-yl)-5-(1H-imidazol-1-yl)-1H-pyrazolo[3,4-c]pyridine-7-carboxamide]", "IC50": "< 10"},
      {"smiles": "O=C(N[C@H]1CC[C@H](C2(O)CC2)CC1)c1nc(-n2ccnc2)nc2cn[nH]c12", "note": "[Example 238, N-((1r,4r)-4-(1-hydroxycyclopropyl)cyclohexyl)-5-(1H-imidazol-1-yl)-1H-pyrazolo[4,3-d]pyrimidine-7-carboxamide]", "IC50": "< 10"},
      {"smiles": "C[C@]1(NCC(F)(F)F)CC[C@@H](NC(=O)c2nc(-n3ccnc3)cc3cn[nH]c23)CC1", "note": "[Example 239, 5-(1H-imidazol-1-yl)-N-((1s,4s)-4-methyl-4-((2,2,2-trifluoroethyl)amino)cyclohexyl)-1H-pyrazolo[3,4-c]pyridine-7-carboxamide]", "IC50": "< 10"},
      {"smiles": "C[C@]1(NCC(F)(F)F)CC[C@H](NC(=O)c2nc(-n3ccnc3)cc3cn[nH]c23)CC1", "note": "[Example 240, 5-(1H-imidazol-1-yl)-N-((1r,4r)-4-methyl-4-((2,2,2-trifluoroethyl)amino)cyclohexyl)-1H-pyrazolo[3,4-c]pyridine-7-carboxamide]", "IC50": "100 to 1000"},
      {"smiles": "O=C(N[C@H]1CC[C@H](N2CC(C(F)(F)F)C2)CC1)c1nc(-n2ccnc2)nc2cn[nH]c12", "note": "[Example 241, 5-(1H-imidazol-1-yl)-N-((1r,4r)-4-(3-(trifluoromethyl)azetidin-1-yl)cyclohexyl)-1H-pyrazolo[4,3-d]pyrimidine-7-carboxamide]", "IC50": "10 to 100"},
      {"smiles": "CNC(=O)[C@H]1CC[C@H](NC(=O)c2nc(-n3ccnc3)nc3cn[nH]c23)CC1", "note": "[Example 242, 5-(1H-imidazol-1-yl)-N-((1r,4r)-4-(methylcarbamoyl)cyclohexyl)-1H-pyrazolo[4,3-d]pyrimidine-7-carboxamide]", "IC50": "10 to 100"},
      {"smiles": "CC(=O)NC[C@H]1CC[C@H](NC(=O)c2nc(-n3ccnc3)nc3cn[nH]c23)CC1", "note": "[Example 243, N-((1r,4r)-4-(acetamidomethyl)cyclohexyl)-5-(1H-imidazol-1-yl)-1H-pyrazolo[4,3-d]pyrimidine-7-carboxamide]", "IC50": "10 to 100"},
      {"smiles": "CC(F)(F)CN[C@H]1CC[C@H](NC(=O)c2nc(-n3ccnc3)nc3cn[nH]c23)CC1", "note": "[Example 244, N-((1r,4r)-4-((2,2-difluoropropyl)amino)cyclohexyl)-5-(1H-imidazol-1-yl)-1H-pyrazolo[4,3-d]pyrimidine-7-carboxamide]", "IC50": "10 to 100"},
      {"smiles": "O=C(NCCC(F)F)c1nc(-n2ccnc2)cc2cn[nH]c12", "note": "[Example 245, N-(3,3-difluoropropyl)-5-(1H-imidazol-1-yl)-1H-pyrazolo[3,4-c]pyridine-7-carboxamide]", "IC50": "10 to 100"},
      {"smiles": "CC(F)(F)CN[C@H]1CC[C@H](NC(=O)c2nc(-n3ccnc3)nc3ccsc23)CC1", "note": "[Example 246, N-((1r,4r)-4-((2,2-difluoropropyl)amino)cyclohexyl)-2-(1H-imidazol-1-yl)thieno[3,2-d]pyrimidine-4-carboxamide]", "IC50": "10 to 100"},
      {"smiles": "CN(CC(F)(F)F)[C@H]1CC[C@H](NC(=O)c2nc(-n3ccnc3)nc3cn[nH]c23)CC1", "note": "[Example 248, 5-(1H-imidazol-1-yl)-N-((1r,4r)-4-(methyl(2,2,2-trifluoroethyl)amino)cyclohexyl)-1H-pyrazolo[4,3-d]pyrimidine-7-carboxamide]", "IC50": "10 to 100"},
      {"smiles": "O=C(N[C@H]1CC[C@H](OCCC(F)(F)F)CC1)c1nc(-n2ccnc2)cc2cn[nH]c12", "note": "[Example 249, 5-(1H-imidazol-1-yl)-N-((1r,4r)-4-(3,3,3-trifluoropropoxy)cyclohexyl)-1H-pyrazolo[3,4-c]pyridine-7-carboxamide]", "IC50": "< 10"},
      {"smiles": "O=C(N[C@H]1CC[C@H](CNCC(F)(F)F)CC1)c1nc(-n2ccnc2)cc2cn[nH]c12", "note": "[Example 250, 5-(1H-imidazol-1-yl)-N-((1r,4r)-4-(((2,2,2-trifluoroethyl)amino)methyl)cyclohexyl)-1H-pyrazolo[3,4-c]pyridine-7-carboxamide]", "IC50": "10 to 100"},
      {"smiles": "O=C(N[C@H]1CC[C@@H](OCC(F)(F)F)CC1)c1nc(-n2ccnc2)cc2cn[nH]c12", "note": "[Example 251, 5-(1H-imidazol-1-yl)-N-((1s,4s)-4-(2,2,2-trifluoroethoxy)cyclohexyl)-1H-pyrazolo[3,4-c]pyridine-7-carboxamide]", "IC50": "10 to 100"},
      {"smiles": "O=C(N[C@H]1CC[C@H](OCC(F)(F)F)CC1)c1nc(-n2ccnc2)cc2cn[nH]c12", "note": "[Example 252, 5-(1H-imidazol-1-yl)-N-((1r,4r)-4-(2,2,2-trifluoroethoxy)cyclohexyl)-1H-pyrazolo[3,4-c]pyridine-7-carboxamide]", "IC50": "10 to 100"},
      {"smiles": "CC(C)(N[C@H]1CC[C@H](NC(=O)c2nc(-n3ccnc3)cc3cn[nH]c23)CC1)C(F)F", "note": "[Example 253, N-((1r,4r)-4-((1,1-difluoro-2-methylpropan-2-yl)amino)cyclohexyl)-5-(1H-imidazol-1-yl)-1H-pyrazolo[3,4-c]pyridine-7-carboxamide]", "IC50": "10 to 100"},
      {"smiles": "CC(C)(N[C@H]1CC[C@@H](NC(=O)c2nc(-n3ccnc3)cc3cn[nH]c23)CC1)C(F)F", "note": "[Example 254, N-((1s,4s)-4-((1,1-difluoro-2-methylpropan-2-yl)amino)cyclohexyl)-5-(1H-imidazol-1-yl)-1H-pyrazolo[3,4-c]pyridine-7-carboxamide]", "IC50": "100 to 1000"},
      {"smiles": "O=C(N[C@H]1CC[C@H](N2CC(F)(F)C2)CC1)c1nc(-n2ccnc2)nc2cn[nH]c12", "note": "[Example 255, N-((1r,4r)-4-(3,3-difluoroazetidin-1-yl)cyclohexyl)-5-(1H-imidazol-1-yl)-1H-pyrazolo[4,3-d]pyrimidine-7-carboxamide]", "IC50": "10 to 100"},
      {"smiles": "CC1(F)CN([C@H]2CC[C@@H](NC(=O)c3nc(-n4ccnc4)nc4cn[nH]c34)CC2)C1", "note": "[Example 256, N-((1s,4s)-4-(3-fluoro-3-methylazetidin-1-yl)cyclohexyl)-5-(1H-imidazol-1-yl)-1H-pyrazolo[4,3-d]pyrimidine-7-carboxamide]", "IC50": "100 to 1000"},
      {"smiles": "CC1(F)CN([C@H]2CC[C@H](NC(=O)c3nc(-n4ccnc4)nc4cn[nH]c34)CC2)C1", "note": "[Example 257, N-((1r,4r)-4-(3-fluoro-3-methylazetidin-1-yl)cyclohexyl)-5-(1H-imidazol-1-yl)-1H-pyrazolo[4,3-d]pyrimidine-7-carboxamide]", "IC50": "10 to 100"},
      {"smiles": "CC1(C#N)CN([C@H]2CC[C@H](NC(=O)c3nc(-n4ccnc4)cc4cn[nH]c34)CC2)C1", "note": "[Example 258, N-((1r,4r)-4-(3-cyano-3-methylazetidin-1-yl)cyclohexyl)-5-(1H-imidazol-1-yl)-1H-pyrazolo[3,4-c]pyridine-7-carboxamide]", "IC50": "10 to 100"},
      {"smiles": "CC1(C#N)CN([C@H]2CC[C@@H](NC(=O)c3nc(-n4ccnc4)cc4cn[nH]c34)CC2)C1", "note": "[Example 259, N-((1s,4s)-4-(3-cyano-3-methylazetidin-1-yl)cyclohexyl)-5-(1H-imidazol-1-yl)-1H-pyrazolo[3,4-c]pyridine-7-carboxamide]", "IC50": "100 to 1000"},
      {"smiles": "CC(C)(O)[C@H]1CC[C@H](NC(=O)c2nc(-n3ccnc3)cc3ccsc23)CC1", "note": "[Example 260, N-((1r,4r)-4-(2-hydroxypropan-2-yl)cyclohexyl)-5-(1H-imidazol-1-yl)thieno[2,3-c]pyridine-7-carboxamide]", "IC50": "< 10"},
      {"smiles": "O=C(N[C@H]1CC[C@H](NCC(F)F)CC1)c1nc(-n2ccnc2)cc2ccsc12", "note": "[Example 261, N-((1r,4r)-4-((2,2-difluoroethyl)amino)cyclohexyl)-5-(1H-imidazol-1-yl)thieno[2,3-c]pyridine-7-carboxamide]", "IC50": "< 10"},
      {"smiles": "CC(F)(F)CN[C@H]1CC[C@H](NC(=O)c2nc(-n3ccnc3)cc3ccsc23)CC1", "note": "[Example 262, N-((1r,4r)-4-((2,2-difluoropropyl)amino)cyclohexyl)-5-(1H-imidazol-1-yl)thieno[2,3-c]pyridine-7-carboxamide]", "IC50": "10 to 100"},
      {"smiles": "O=C(N[C@H]1CC[C@H](C2(O)CC2)CC1)c1nc(-n2ccnc2)cc2ccsc12", "note": "[Example 263, N-((1r,4r)-4-(1-hydroxycyclopropyl)cyclohexyl)-5-(1H-imidazol-1-yl)thieno[2,3-c]pyridine-7-carboxamide]", "IC50": "< 10"}
    ]}
  ]
}
